Where a name gives a salt, the structure may show the parent alone.

System in one data set: not given
Conditions: not given
Molecule `CCc1nn(C[C@H](C)N)c(CC)c1S(=O)(=O)c1ccc(N2CCCC(C)(C)C2=O)cc1.Cl` came in with a melting point of 131 °C. `CCc1nn(CCNC)c(CC)c1Sc1ccc(F)cc1.O=C(O)/C=C\C(=O)O`: the melting point was 95 to 97 °C.

On to `CCc1nn(CC(C)(C)N)c(CC)c1Sc1ccc(F)cc1.O=C(O)/C=C\C(=O)O`, for which the melting point lay within 120 to 122 °C. As to `CCc1nn(C(C)CN)c(CC)c1Sc1ccc(F)cc1.O=C(O)/C=C\C(=O)O` (stereo not drawn), the melting point worked out at 162 °C. Still for that read-out and setting: under `Cc1nn(CCN)c(C)c1Sc1ccccc1` (as salt: HCl) [Example 2, 2-[3,5-dimethyl-4-(phenylsulfanyl)-1H-pyrazol-1-yl]ethylamine] stands 185 to 188 °C; under `CCc1nn(C(C)C(N)=O)c(CC)c1Sc1ccc(F)cc1` (stereo not drawn) (as salt: hydrochloride), 167 °C; under `CCc1nn(CCN)c(CC)c1Sc1nnnn1C` (as salt: salt) [Example 204], 148 °C. On to `CCc1nn(CCN)c(CC)c1Sc1nccc(C(F)(F)F)n1` (as salt: salt) [Example 205], for which the melting point worked out at 154 °C. Still for that read-out and setting: under `CCc1nn(CCNC)c(CC)c1S(=O)(=O)c1ccc(N2C(=O)CC(C)(C)C2=O)cc1` [Example 160, 1-[4-({3,5-diethyl-1-[2-(methylamino)ethyl]-1H-pyrazol-4-yl}sulfonyl)phenyl]-3,3-dimethyl-2,5-pyrrolidinedione] stands 84 to 86 °C.

For the next data set, the target named is 5-HT2 receptors. Conditions: cited from earlier work.
Consider `Cc1nc2sccn2c(=O)c1CCN1CCC(=C(c2ccc(F)cc2)c2ccc(F)cc2)CC1` [ritanserin], for which the “pKi for the 5-HT2 receptors” value is 8.9 and the “selectivity for the 5-HT2 receptors over 5-HT, receptors” value is listed as 10,000 fold.

The target in another data set is T1, 5-HT2C receptor (Homo sapiens, UniProt P28335).
T1 sequence (P28335 33-458): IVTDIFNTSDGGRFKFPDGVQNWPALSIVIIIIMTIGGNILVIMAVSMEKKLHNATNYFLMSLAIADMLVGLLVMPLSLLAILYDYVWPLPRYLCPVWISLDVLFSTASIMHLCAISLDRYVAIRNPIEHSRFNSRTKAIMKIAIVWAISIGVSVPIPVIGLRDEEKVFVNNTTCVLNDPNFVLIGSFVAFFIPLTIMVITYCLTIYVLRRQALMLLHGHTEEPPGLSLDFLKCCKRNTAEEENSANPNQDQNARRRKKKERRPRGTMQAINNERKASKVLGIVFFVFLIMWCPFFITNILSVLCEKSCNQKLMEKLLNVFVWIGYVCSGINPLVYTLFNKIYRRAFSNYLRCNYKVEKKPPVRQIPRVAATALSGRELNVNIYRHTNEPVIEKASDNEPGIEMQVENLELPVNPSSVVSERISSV
Particulars: cited from earlier work.
As to `Cc1cc2c(cc1Cl)N(C(=O)Nc1ccc(Oc3cccnc3C)nc1)CC2` [SB-242084], the “selectivity as 5-HT2C receptor antagonist” value is “at least 100 fold”.

The values above are taken from US20050119489A1, “4-Sulfide/sulfoxide/sulfonyl-1h-pyrazolyl derivative compounds, for use in diseases associated with the 5-ht2c receptor” (priority 2001, published 2005).
